Experimental data as given in patent US10464957B2, “Oxidized lipids and methods of use thereof” (Vascular Biogenics Ltd., priority 2014, dated 2019).

Legend:
[1] = system: Pam3CSK4 (TLR2)-stimulated human monocytes (primary CD14+); experiment: IL-12/23p40 ELISA, Pam3CSK4 (TLR2)-stimulated monocytes; format: cell-based; conditions: 1 hour pretreatment, 24 hour 300 ng/ml Pam3CSK4, ELISA of supernatant
Method: (§1) Human monocytes were obtained as described in Example 9 and FIG. 9A-9B. Human monocytes were seeded (10^6/ml) and pretreated for 1 hour with VB-201, VB-701 or VB-702, followed by 24 hour activation with 100 ng/ml LPS from Escherichia coli strain 055:B5 (Sigma, Israel) (FIG. 9A) or 300 ng/ml Pam3CSK4 (InvivoGen, San Diego, Calif., USA) (FIG. 9B) to induce cytokine production. IL-12/23p40 concentration in the supernatant was then measured by ELISA (R&D systems, Cat. No. DY1240). Cells activated with solvent (0.5% ethanol in PBS) were used as a control.

[2] = system: MCP-1-induced signaling in human monocytes (THP-1 cell line); experiment: MCP-1-induced signaling, western blot; format: cell-based; conditions: 20 min pretreatment, 50 ng/ml MCP1, THP-1
Method: THP-1 cells (10^6/ml) were pretreated for 20 min with VB-201 or VB-701 at the doses indicated in FIG. 4, or with solvent, followed by activation with 50 ng/ml MCP1, or were untreated (“Unt”). Cells were washed and resuspended in lysis buffer containing 1:100 dithiothreitol (DTT), phosphatase and protease inhibitors (Thermo Scientific). Samples were loaded onto a precast Criterion TGX gel (Bio-Rad, Hemel Hempstead, UK) and transferred onto nitrocellulose membrane. Blots were blocked with 5% milk or BSA in Tris buffered saline and Tween 20 (TBST) for 1 h, followed by incubation with primary and secondary antibodies. Membranes were developed using an ECL kit (Thermo Scientific). The following antibodies were used for immunoblotting:
Primary antibodies: p-ERK1/2 (Cat. No. M8159; 1:10000) was purchased from Sigma (Israel). p-AKT (Cat. No. 4060; 1:1000) was purchased from Cell Signaling Technology (Danvers, Mass.). αTubulin served as a loading control and was purchased from Sigma (Israel).
(§2) Secondary antibodies: HRP donkey anti-rabbit (1:5000) and HRP goat anti-mouse (1:3000) were from Jackson ImmunoResearch (West Grove, Pa., USA). HRP donkey anti-goat (1:5000) was from Santa Cruz Biotechnology.

[3] = system: PGN (TLR2)-induced signaling in human monocytes (THP-1 cell line); experiment: PGN (TLR2)-induced signaling, western blot; format: cell-based; conditions: 20 min pretreatment, 20 μg/ml PGN for 15 minutes
Method: The monocytic THP-1 cell line was purchased from the American Type Tissue Culture Collection (ATCC Cat. No. TIB-202). Cells (10^6/ml) were pretreated for 20 min with VB-201 or VB-701 at the doses indicated in FIG. 3, or with solvent, followed by activation with 20 μg/ml peptidoglycan (PGN) (InvivoGen, San Diego, Calif.) for 15 minutes, or were untreated (“Unt”). Cells were washed and resuspended in lysis buffer containing 1:100 dithiothreitol (DTT), phosphatase and protease inhibitors (Thermo Scientific). Samples were loaded onto a precast Criterion TGX gel (Bio-Rad, Hemel Hempstead, UK) and transferred onto nitrocellulose membrane. Blots were blocked with 5% milk or BSA in Tris buffered saline and Tween 20 (TBST) for 1 h, followed by incubation with primary and secondary antibodies. Membranes were developed using an ECL kit (Thermo Scientific). The following antibodies were used for immunoblotting:
Primary antibodies: p-p38 (Cat. No. 4511; 1:1000) and p-IKK (Cat. No. 2697; 1:1000) were from Cell Signaling Technology (Danvers, Mass., USA). p-ERK1/2 (Cat. No. M8159; 1:10000) was purchased from Sigma (Israel). αTubulin served as a loading control.
as §2

[4] = system: LPS (TLR4)-induced signaling in human monocytes (primary CD14+); experiment: LPS (TLR4)-induced signaling, western blot; format: cell-based; conditions: western blot; for formation of p-IKK, p-ERK and p-p38 induced by LPS: 20 min pretreatment, 15 min activation with 100 ng/ml LPS
Method: (§3) Venous blood samples were obtained from healthy male donors in compliance with the Institutional Review Board at the Sheba Medical Center, Ramat Gan, Israel. PBMCs were isolated on Ficoll-Paque PLUS (GE Healthcare, Uppsala, Sweden) using 50 ml Leucosep tubes (Greiner Bio-One, Frickenhausen, Germany). Cells were washed in PBS (Kibbutz Beit Haemek, Israel) and incubated at 4° C. for 15 minutes in a buffer containing PBS and 0.5% bovine serum albumin (BSA) with human CD14 microbeads (Miltenyi Biotec, Bergisch Gladbach, Germany).
(§4) Cells (10^6/ml) were pretreated for 20 min with VB-201 (1-hexadecyl-2-(4′-carboxy)butyl-glycero-3-phosphocholine or 1-hexadecyl-2-(4′-carboxybutyl)-glycerol-3-phosphocholine) or VB-701 at the doses indicated in FIG. 2, or with solvent (Sol), followed by 15 min activation with 100 ng/ml lipopolysaccharide (LPS) or were untreated (Unt). Cells were washed and resuspended in lysis buffer containing 1:100 dithiothreitol (DTT), phosphatase and protease inhibitors (Thermo Scientific). Samples were loaded onto a precast Criterion TGX gel (Bio-Rad, Hemel Hempstead, UK) and transferred onto nitrocellulose membrane. Blots were blocked with 5% milk or BSA in Tris buffered saline and Tween 20 (TBST) for 1 h, followed by incubation with primary and secondary antibodies. Membranes were developed using an ECL kit (Thermo Scientific). The following antibodies were used for immunoblotting:
Primary antibodies: p-p38 (Cat. No. 4511; 1:1000) and p-IKK (Cat. No. 2697; 1:1000) were from Cell Signaling Technology (Danvers, Mass., USA). p-ERK1/2 (Cat. No. M8159; 1:10000) was purchased from Sigma (Israel). αTubulin (Tub) served as a loading control.
as §2
as §4, with “VB-201” for “VB-201 (1-hexadecyl-2-(4′-carboxy)butyl-glycero-3-phosphocholine”, “VB-703” for “1-hexadecyl-2-(4′-carboxybutyl)-glycerol-3-phosphocholine) or VB-701 at the doses indicated in FIG. 2, or with solvent (Sol),”, “LPS.” for “lipopolysaccharide (LPS) or were untreated (Unt).”
Primary antibodies: p-p38 (Cat. No. 4511; 1:1000) and p-IKK (Cat. No. 2697; 1:1000) were from Cell Signaling Technology (Danvers, Mass., USA). p-ERK1/2 (Cat. No. M8159; 1:10000) was purchased from Sigma (Israel). Heat shock protein (HSP) 90 (Cat. No. 13119; 1:500) was from Santa Cruz Biotechnology (Santa Cruz, Calif., USA).

[5] = system: human monocytes (primary CD14+); experiment: Chemokine-induced cell migration trans-well assay; format: cell-based; conditions: RANTES 100 ng/ml and MCP-1 50 ng/ml, 2-4 hours, FACS count
Method: as §3
Cells (10^6/ml) were pretreated for 20 min with VB-201 or VB-701 at the doses indicated in FIG. 5, or with solvent (Sol).
To test for chemokine-induced cell migration, RANTES (100 ng/ml; Cat. No. 300-06, PeproTech, Israel) and MCP-1 (50 ng/ml; Cat. No. 300-04, PeproTech, Israel) were dissolved in RPMI-1640 medium supplemented with 0.5% fetal bovine serum (FBS) and placed at the lower chamber of QCM 24-well, […], migration assay plates (Corning-Costar, Corning, N.Y.). Cells (3×10^5) were seeded in the upper chamber and incubated for 2-4 hours. Subsequently, the number of cells which migrated to the lower compartment was determined by fluorescence-activated cell sorting (FACS).

[6] = system: LPS (TLR4)-stimulated human monocytes (primary CD14+); experiment: IL-12/23p40 ELISA, LPS (TLR4)-stimulated monocytes; format: cell-based; conditions: 1 hour pretreatment, 24 hour 100 ng/ml LPS, ELISA of supernatant
Method: as §1

[7] = system: RANTES-induced signaling in human monocytes (primary CD14+); experiment: RANTES-induced signaling, western blot; format: cell-based; conditions: RANTES 100 ng/ml for 15 minutes
Method: as §4
Human monocytes were obtained, treated and analyzed by western blot as described in Example 9 and FIG. 7, except that cells were induced with RANTES (100 ng/ml; Cat. No. 300-06, PeproTech, Israel) for 15 minutes. […] Accordingly, VB-702 and VB-201 inhibit RANTES-induced signaling in human monocytes (primary CD14+).

TLR4 complex = target: T1, TLR4 complex (Homo sapiens, UniProt O00206+Q9Y6Y9); experiment: LPS binding inhibition assay (biotin-LPS, FACS); conditions: biotin-LPS 100 ng/ml, FACS
T1 construct: endogenous in cells; probably the human primary monocytes of b454
T1 sequence (O00206 24-839): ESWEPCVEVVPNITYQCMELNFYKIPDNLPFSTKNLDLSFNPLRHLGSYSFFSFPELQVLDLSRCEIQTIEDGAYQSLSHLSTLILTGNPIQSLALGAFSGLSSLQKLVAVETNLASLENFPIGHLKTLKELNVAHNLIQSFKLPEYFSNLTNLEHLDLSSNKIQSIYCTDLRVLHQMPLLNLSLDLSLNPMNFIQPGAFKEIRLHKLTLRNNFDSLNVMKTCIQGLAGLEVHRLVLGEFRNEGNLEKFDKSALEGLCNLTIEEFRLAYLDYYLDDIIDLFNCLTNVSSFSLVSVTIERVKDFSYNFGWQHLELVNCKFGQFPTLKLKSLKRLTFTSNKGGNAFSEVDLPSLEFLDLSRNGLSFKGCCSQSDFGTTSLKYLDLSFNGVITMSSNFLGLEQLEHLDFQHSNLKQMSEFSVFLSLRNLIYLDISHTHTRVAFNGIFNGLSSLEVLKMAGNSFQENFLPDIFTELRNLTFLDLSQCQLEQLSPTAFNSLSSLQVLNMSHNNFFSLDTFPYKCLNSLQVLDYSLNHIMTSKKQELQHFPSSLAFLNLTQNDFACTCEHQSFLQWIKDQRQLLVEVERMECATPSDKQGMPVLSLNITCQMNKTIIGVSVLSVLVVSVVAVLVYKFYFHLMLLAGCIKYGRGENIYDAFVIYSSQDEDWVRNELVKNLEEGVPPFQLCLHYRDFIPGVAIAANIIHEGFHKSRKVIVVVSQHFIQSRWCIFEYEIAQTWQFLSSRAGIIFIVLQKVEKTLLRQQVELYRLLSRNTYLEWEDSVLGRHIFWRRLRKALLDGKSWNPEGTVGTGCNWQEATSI
T1 sequence (Q9Y6Y9 17-160 limits assumed): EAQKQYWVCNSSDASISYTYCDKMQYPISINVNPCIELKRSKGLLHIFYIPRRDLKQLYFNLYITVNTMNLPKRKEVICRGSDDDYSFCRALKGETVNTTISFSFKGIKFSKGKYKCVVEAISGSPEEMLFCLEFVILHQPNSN
Method: To assess interference with lipopolysaccharide (LPS) binding, VB-201 or VB-703 were incubated for 20 min with cells (10^6/ml) after which 100 ng/ml of biotin-LPS (InvivoGen) was added for an additional 15 minutes, all at 4° C. Cells were washed, resuspended in FACS buffer and analyzed on a FACS-Calibur device.

[8] = system: human monocytes (THP-1 cell line); experiment: SDF1-induced cell migration trans-well assay; format: cell-based; conditions: 5 μg/ml, 20 min pretreatment

Row | Compound | IL-12p40 levels, Pam3CSK4 (TLR2)-stimulated [1] | formation of p-AKT and p-ERK induced by MCP1 [2] | formation of p-IKK, p-ERK and p-p38 induced by PGN [3] | formation of p-IKK, p-ERK and p-p38 induced by LPS [4] | chemokine-induced migration of human monocytes [5] | IL-12p40 levels, LPS (TLR4)-stimulated [6] | formation of p-ERK induced by RANTES [7] | LPS-biotin binding to human monocytes (primary CD14+) (TLR4 complex) | formation of p-ERK and p-AKT induced by LPS ([4]; LPS activation) | SDF1-induced migration of human monocytes (THP-1 cell line) [8]
1 | CCCCCCCCCCCCCCCCOCC(COP(=O)([O-])OCC[n+]1ccccc1)OCCCCC(=O)O (centres unmarked) [VB-701, 1-hexadecyl-2-(4′-carboxy)butyl-glycero-sn-3-phosphoric acid pyridiniumethyl ester] | inhibit | inhibit | inhibit | inhibit | inhibit | inhibit | – | – | – | –
2 | CCCCCCCCCCCCCCCCCCCCOCC(COP(=O)([O-])OCC[n+]1ccccc1)OCCCCC(=O)O (centres unmarked) [VB-702, 1-eicosanyl-2-(4′-carboxy)butyl-glycero-sn-3-phosphoric acid pyridiniumethyl ester] | inhibit | – | – | inhibit | inhibit | inhibit | inhibit | – | – | –
3 | CCCCCCCCCCC(CCCCCCCC)COCC(COP(=O)([O-])OCC[n+]1ccccc1)OCCCCC(=O)OC (centres unmarked) [VB-705, 1-(2′-octyl)dodecyl-2-(4′-carboxymethyl)butyl-glycero-sn-3-phosphoric acid pyridiniumethyl ester] | – | – | – | – | – | – | – | inhibits | inhibit | does not inhibit
